Measured values taken from paper PMC6311682, “Design, Synthesis, and Biological Evaluation of 2-Nitroimidazopyrazin-one/-es with Antitubercular and Antiparasitic Activity” (Journal of Medicinal Chemistry, 2018).
pIC50: −log10 of the molar value. Converted amounts (≈) assume the structure as drawn.

test system: E. histolytica (HM1:IMSS); experiment: ATP-bioluminescence cell growth and survival assay, E. histolytica trophozoites; format: cell-based; conditions: Entamoeba histolytica, read-out: antiparasitic IC50 E. histolytica

| Compound | pIC50 |
| --- | --- |
| O=c1c2nc([N+](=O)[O-])cn2ccn1CCc1ccc(OC(F)(F)F)cc1 [17m, 2-Nitro-7-(4-(trifluoromethoxy)phenethyl)imidazo[1,2-a]pyrazin-8(7H)-one] | < 4.30 |
| Cc1ccc(CCn2ccn3cc([N+](=O)[O-])nc3c2=O)cc1 [17n, 7-(4-Methylphenethyl)-2-nitroimidazo[1,2-a]pyrazin-8(7H)-one] | < 4.30 |
| O=c1c2nccn2ccn1Cc1ccccc1 [20b, 7-Benzylimidazo[1,2-a]pyrazin-8(7H)-one] | < 4.60 |
| O=c1c2nccn2ccn1Cc1ccc(F)cc1 [20c, 7-(4-Fluorobenzyl)imidazo[1,2-a]pyrazin-8(7H)-one] | < 4.30 |

same assay, conditions: Entamoeba histolytica, read-out: antiparasitic pIC50 ± SE E. histolytica (converted)

| Compound | IC50 [µM] |
| --- | --- |
| O=c1c2nc([N+](=O)[O-])cn2ccn1CCc1ccc(OC(F)(F)F)cc1 [17m, 2-Nitro-7-(4-(trifluoromethoxy)phenethyl)imidazo[1,2-a]pyrazin-8(7H)-one] | > 50.1 |
| Cc1ccc(CCn2ccn3cc([N+](=O)[O-])nc3c2=O)cc1 [17n, 7-(4-Methylphenethyl)-2-nitroimidazo[1,2-a]pyrazin-8(7H)-one] | > 50.1 |
| O=c1c2nccn2ccn1Cc1ccccc1 [20b, 7-Benzylimidazo[1,2-a]pyrazin-8(7H)-one] | > 25.1 |
| O=c1c2nccn2ccn1Cc1ccc(F)cc1 [20c, 7-(4-Fluorobenzyl)imidazo[1,2-a]pyrazin-8(7H)-one] | > 50.1 |

test system: L. donovani MHOM/IN/80/DD8 (ATCC50212); experiment: L. donovani DD8 intracellular (THP-1) amastigote assay; format: cell-based; conditions: Leishmania donovani, read-out: antiparasitic IC50 L. donovani

| Compound | pIC50 |
| --- | --- |
| O=c1c2nc([N+](=O)[O-])cn2ccn1Cc1ccc(F)cc1 [17e, 7-(4-Fluorobenzyl)-2-nitroimidazo[1,2-a]pyrazin-8(7H)-one] | < 4.10 |
| O=c1c2nc([N+](=O)[O-])cn2ccn1CCc1ccc(OC(F)(F)F)cc1 [17m, 2-Nitro-7-(4-(trifluoromethoxy)phenethyl)imidazo[1,2-a]pyrazin-8(7H)-one] | < 4.10 |
| Cc1ccc(CCn2ccn3cc([N+](=O)[O-])nc3c2=O)cc1 [17n, 7-(4-Methylphenethyl)-2-nitroimidazo[1,2-a]pyrazin-8(7H)-one] | < 4.10 |
| O=c1c2nccn2ccn1Cc1ccccc1 [20b, 7-Benzylimidazo[1,2-a]pyrazin-8(7H)-one] | < 4.10 |
| O=c1c2nccn2ccn1Cc1ccc(F)cc1 [20c, 7-(4-Fluorobenzyl)imidazo[1,2-a]pyrazin-8(7H)-one] | < 4.10 |

same assay, conditions: Leishmania donovani, read-out: antiparasitic pIC50 ± SE L. donovani (converted)

| Compound | IC50 [µM] |
| --- | --- |
| O=c1c2nc([N+](=O)[O-])cn2ccn1Cc1ccc(F)cc1 [17e, 7-(4-Fluorobenzyl)-2-nitroimidazo[1,2-a]pyrazin-8(7H)-one] | > 79.4 |
| O=c1c2nc([N+](=O)[O-])cn2ccn1CCc1ccc(OC(F)(F)F)cc1 [17m, 2-Nitro-7-(4-(trifluoromethoxy)phenethyl)imidazo[1,2-a]pyrazin-8(7H)-one] | > 79.4 |
| Cc1ccc(CCn2ccn3cc([N+](=O)[O-])nc3c2=O)cc1 [17n, 7-(4-Methylphenethyl)-2-nitroimidazo[1,2-a]pyrazin-8(7H)-one] | > 79.4 |
| O=c1c2nccn2ccn1Cc1ccccc1 [20b, 7-Benzylimidazo[1,2-a]pyrazin-8(7H)-one] | > 79.4 |
| O=c1c2nccn2ccn1Cc1ccc(F)cc1 [20c, 7-(4-Fluorobenzyl)imidazo[1,2-a]pyrazin-8(7H)-one] | > 79.4 |

test system: G. lamblia (WB line); experiment: ATP-bioluminescence cell growth and survival assay, G. lamblia trophozoites; format: cell-based; conditions: Giardia duodenalis, read-out: antiparasitic IC50 G. lamblia

| Compound | pIC50 |
| --- | --- |
| O=c1c2nc([N+](=O)[O-])cn2ccn1CCc1ccc(OC(F)(F)F)cc1 [17m, 2-Nitro-7-(4-(trifluoromethoxy)phenethyl)imidazo[1,2-a]pyrazin-8(7H)-one] | 5.49 to 5.80 |
| Cc1ccc(CCn2ccn3cc([N+](=O)[O-])nc3c2=O)cc1 [17n, 7-(4-Methylphenethyl)-2-nitroimidazo[1,2-a]pyrazin-8(7H)-one] | 5.49 to 5.80 |
| O=c1c2nccn2ccn1Cc1ccccc1 [20b, 7-Benzylimidazo[1,2-a]pyrazin-8(7H)-one] | < 4.60 |
| O=c1c2nccn2ccn1Cc1ccc(F)cc1 [20c, 7-(4-Fluorobenzyl)imidazo[1,2-a]pyrazin-8(7H)-one] | < 4.30 |

same assay, conditions: Giardia duodenalis, read-out: antiparasitic pIC50 ± SE G. lamblia (converted)

| Compound | IC50 [µM] |
| --- | --- |
| O=c1c2nccn2ccn1Cc1ccccc1 [20b, 7-Benzylimidazo[1,2-a]pyrazin-8(7H)-one] | > 25.1 |
| O=c1c2nccn2ccn1Cc1ccc(F)cc1 [20c, 7-(4-Fluorobenzyl)imidazo[1,2-a]pyrazin-8(7H)-one] | > 50.1 |

test system: not listed separately; experiment: Plasma protein binding, ultrafiltration method; format: in vitro ADME; conditions: human plasma, % bound, read-out: PPB (%) (converted)

| Compound | fraction unbound at 0.5 h, 5 µM |
| --- | --- |
| O=c1c2nc([N+](=O)[O-])cn2ccn1Cc1ccc(F)cc1 [17e, 7-(4-Fluorobenzyl)-2-nitroimidazo[1,2-a]pyrazin-8(7H)-one] | 0.18 |

test system: T. b. brucei (strain 427, BS427); experiment: 384-well resazurin viability assay, T. b. brucei bloodstream parasites; format: cell-based; conditions: Trypanosoma brucei, BS427, n = 2; read-out: antiparasitic IC50 T. b. brucei

| Compound | pIC50 |
| --- | --- |
| O=c1c2nccn2ccn1Cc1ccccc1 [20b, 7-Benzylimidazo[1,2-a]pyrazin-8(7H)-one] | < 4.40 |
| O=c1c2nccn2ccn1Cc1ccc(F)cc1 [20c, 7-(4-Fluorobenzyl)imidazo[1,2-a]pyrazin-8(7H)-one] | < 4.40 |

same assay, conditions: Trypanosoma brucei, BS427, n = 2; read-out: antiparasitic pIC50 ± SE T. b. brucei (converted)

| Compound | IC50 [µM] |
| --- | --- |
| O=c1c2nccn2ccn1Cc1ccccc1 [20b, 7-Benzylimidazo[1,2-a]pyrazin-8(7H)-one] | > 39.8 |
| O=c1c2nccn2ccn1Cc1ccc(F)cc1 [20c, 7-(4-Fluorobenzyl)imidazo[1,2-a]pyrazin-8(7H)-one] | > 39.8 |

test system: not listed separately; experiment: Kinetic solubility determination by LC-UV; conditions: PBS, pH 7.4, Solubility µM (PBS), PBS pH 7.4, 24 h, room temperature, 1% DMSO

| Compound | solubility at 24 h [µM] |
| --- | --- |
| O=c1c2nc([N+](=O)[O-])cn2ccn1Cc1ccc(F)cc1 [17e, 7-(4-Fluorobenzyl)-2-nitroimidazo[1,2-a]pyrazin-8(7H)-one] | < 5 |
| O=c1c2nc([N+](=O)[O-])cn2ccn1CCc1ccc(OC(F)(F)F)cc1 [17m, 2-Nitro-7-(4-(trifluoromethoxy)phenethyl)imidazo[1,2-a]pyrazin-8(7H)-one] | < 5 |
| Cc1ccc(CCn2ccn3cc([N+](=O)[O-])nc3c2=O)cc1 [17n, 7-(4-Methylphenethyl)-2-nitroimidazo[1,2-a]pyrazin-8(7H)-one] | < 5 |

same assay, conditions: water, Solubility µM (H2O), 24 h, room temperature, 1% DMSO

| Compound | solubility at 24 h [µM] |
| --- | --- |
| O=c1c2nc([N+](=O)[O-])cn2ccn1Cc1ccc(F)cc1 [17e, 7-(4-Fluorobenzyl)-2-nitroimidazo[1,2-a]pyrazin-8(7H)-one] | < 5 |
| O=c1c2nc([N+](=O)[O-])cn2ccn1CCc1ccc(OC(F)(F)F)cc1 [17m, 2-Nitro-7-(4-(trifluoromethoxy)phenethyl)imidazo[1,2-a]pyrazin-8(7H)-one] | < 5 |
| Cc1ccc(CCn2ccn3cc([N+](=O)[O-])nc3c2=O)cc1 [17n, 7-(4-Methylphenethyl)-2-nitroimidazo[1,2-a]pyrazin-8(7H)-one] | < 5 |

test system: C. albicans (ATCC 90028) and C. neoformans (H99, ATCC 208821); experiment: Broth microdilution MIC assay, fungi; format: cell-based; conditions: Candida albicans, read-out: antifungal MIC

| Compound | MIC [mg/L] |
| --- | --- |
| O=c1c2nccn2ccn1Cc1ccccc1 [20b, 7-Benzylimidazo[1,2-a]pyrazin-8(7H)-one] | > 32 |
| O=c1c2nccn2ccn1Cc1ccc(F)cc1 [20c, 7-(4-Fluorobenzyl)imidazo[1,2-a]pyrazin-8(7H)-one] | > 32 |

test system: not listed separately; experiment: Broth microdilution MIC assay, ESKAPE pathogens; format: cell-based; conditions: S. aureus, E. coli, K. pneumoniae, A. baumannii, P. aeruginosa; read-out: antibacterial MIC ESKAPE

| Compound | MIC [mg/L] |
| --- | --- |
| O=c1c2nc([N+](=O)[O-])cn2ccn1Cc1ccc(F)cc1 [17e, 7-(4-Fluorobenzyl)-2-nitroimidazo[1,2-a]pyrazin-8(7H)-one] | > 32 |
| O=c1c2nc([N+](=O)[O-])cn2ccn1CCc1ccc(OC(F)(F)F)cc1 [17m, 2-Nitro-7-(4-(trifluoromethoxy)phenethyl)imidazo[1,2-a]pyrazin-8(7H)-one] | > 32 |
| Cc1ccc(CCn2ccn3cc([N+](=O)[O-])nc3c2=O)cc1 [17n, 7-(4-Methylphenethyl)-2-nitroimidazo[1,2-a]pyrazin-8(7H)-one] | > 32 |
| O=c1c2nccn2ccn1Cc1ccccc1 [20b, 7-Benzylimidazo[1,2-a]pyrazin-8(7H)-one] | > 32 |
| O=c1c2nccn2ccn1Cc1ccc(F)cc1 [20c, 7-(4-Fluorobenzyl)imidazo[1,2-a]pyrazin-8(7H)-one] | > 32 |

test system: ESKAPE pathogens S. aureus (ATCC 43300), E. coli (ATCC 25922), K. pneumoniae (ATCC 700603), A. baumannii (ATCC 19606), P. aeruginosa (ATCC 27853); experiment: Broth microdilution MIC assay, ESKAPE pathogens; format: cell-based; conditions: not given

| Compound | antibacterial MIC ESKAPE [mg/L] |
| --- | --- |
| O=c1c2nc([N+](=O)[O-])cn2ccn1Cc1ccc(F)cc1 [17e, 7-(4-Fluorobenzyl)-2-nitroimidazo[1,2-a]pyrazin-8(7H)-one] | >32 |
| O=c1c2nc([N+](=O)[O-])cn2ccn1CCc1ccc(OC(F)(F)F)cc1 [17m, 2-Nitro-7-(4-(trifluoromethoxy)phenethyl)imidazo[1,2-a]pyrazin-8(7H)-one] | >32 |
| Cc1ccc(CCn2ccn3cc([N+](=O)[O-])nc3c2=O)cc1 [17n, 7-(4-Methylphenethyl)-2-nitroimidazo[1,2-a]pyrazin-8(7H)-one] | >32 |

test system: C. difficile (630, ATCC BAA-1382); experiment: Broth microdilution MIC assay, C. difficile; format: cell-based, Clostridium difficile; conditions: 630 ATCC BAA-1382, median MIC

| Compound | antibacterial MIC C. difficile [mg/L] |
| --- | --- |
| Cc1ccc(CCn2ccn3cc([N+](=O)[O-])nc3c2=O)cc1 [17n, 7-(4-Methylphenethyl)-2-nitroimidazo[1,2-a]pyrazin-8(7H)-one] | >64 |

same assay, conditions: Clostridioides difficile, ATCCBAA1382; 630 ATCC BAA-1382, median MIC; read-out: antibacterial MIC C. difficile

| Compound | MIC [mg/L] |
| --- | --- |
| O=c1c2nc([N+](=O)[O-])cn2ccn1CCc1ccc(OC(F)(F)F)cc1 [17m, 2-Nitro-7-(4-(trifluoromethoxy)phenethyl)imidazo[1,2-a]pyrazin-8(7H)-one] | 64 (≈ 174 µM) |
| Cc1ccc(CCn2ccn3cc([N+](=O)[O-])nc3c2=O)cc1 [17n, 7-(4-Methylphenethyl)-2-nitroimidazo[1,2-a]pyrazin-8(7H)-one] | > 64 |
| O=c1c2nccn2ccn1Cc1ccccc1 [20b, 7-Benzylimidazo[1,2-a]pyrazin-8(7H)-one] | > 64 |
| O=c1c2nccn2ccn1Cc1ccc(F)cc1 [20c, 7-(4-Fluorobenzyl)imidazo[1,2-a]pyrazin-8(7H)-one] | > 64 |

test system: M. tuberculosis (H37Rv); experiment: M. tuberculosis H37Rv resazurin reduction microplate MIC assay, hypoxic conditions (0.1% oxygen); format: cell-based, Mycobacterium tuberculosis; conditions: Mycobacterium tuberculosis; H37Rv, hypoxia (0.1% oxygen); read-out: antibacterial MIC M. tuberculosis hypoxia

| Compound | MIC [mg/L] |
| --- | --- |
| O=c1c2nccn2ccn1Cc1ccccc1 [20b, 7-Benzylimidazo[1,2-a]pyrazin-8(7H)-one] | > 32 |
| O=c1c2nccn2ccn1Cc1ccc(F)cc1 [20c, 7-(4-Fluorobenzyl)imidazo[1,2-a]pyrazin-8(7H)-one] | > 32 |

test system: not listed separately; experiment: Mammalian cytotoxicity assay (resazurin), HEK293; conditions: human, HEK293 cells

| Compound | CC50 at 24 h [µM] |
| --- | --- |
| O=c1c2nccn2ccn1Cc1ccccc1 [20b, 7-Benzylimidazo[1,2-a]pyrazin-8(7H)-one] | > 100 |
| O=c1c2nccn2ccn1Cc1ccc(F)cc1 [20c, 7-(4-Fluorobenzyl)imidazo[1,2-a]pyrazin-8(7H)-one] | > 100 |

test system: not listed separately; experiment: Mammalian cytotoxicity assay (resazurin), HepG2; conditions: human, HepG2 cells

| Compound | CC50 at 24 h [µM] |
| --- | --- |
| O=c1c2nccn2ccn1Cc1ccccc1 [20b, 7-Benzylimidazo[1,2-a]pyrazin-8(7H)-one] | > 100 |
| O=c1c2nccn2ccn1Cc1ccc(F)cc1 [20c, 7-(4-Fluorobenzyl)imidazo[1,2-a]pyrazin-8(7H)-one] | > 100 |

test system: M. tuberculosis (H37Rv); experiment: M. tuberculosis H37Rv resazurin reduction microplate MIC assay, normoxic conditions; format: cell-based; conditions: Mycobacterium tuberculosis, normoxia, read-out: antibacterial MIC M. tuberculosis normoxia

| Compound | MIC [mg/L] |
| --- | --- |
| O=c1c2nc([N+](=O)[O-])cn2ccn1CCc1ccc(OC(F)(F)F)cc1 [17m, 2-Nitro-7-(4-(trifluoromethoxy)phenethyl)imidazo[1,2-a]pyrazin-8(7H)-one] | 8 (≈ 21.7 µM) |
| Cc1ccc(CCn2ccn3cc([N+](=O)[O-])nc3c2=O)cc1 [17n, 7-(4-Methylphenethyl)-2-nitroimidazo[1,2-a]pyrazin-8(7H)-one] | 4 (≈ 13.4 µM) |
| O=c1c2nccn2ccn1Cc1ccccc1 [20b, 7-Benzylimidazo[1,2-a]pyrazin-8(7H)-one] | > 32 |
| O=c1c2nccn2ccn1Cc1ccc(F)cc1 [20c, 7-(4-Fluorobenzyl)imidazo[1,2-a]pyrazin-8(7H)-one] | > 32 |
